The source of these data is patent US10858352B2, “Pharmaceutical compounds” (Heptares Therapeutics Limited, priority 2018, dated 2020).

Holding throughout (type): cell-based
The target in test [1] is T1, human muscarinic M3 receptor (Homo sapiens, UniProt P20309).
T1 construct: expressed in transfected cells
In words: Alphascreen Surefire phospho-ERK1/2 functional assay, M3. The conditions noted are these: for Emax: CHO. The procedure: (§1) ERK1/2 phosphorylation is a downstream consequence of both Gq/11 and Gi/o protein coupled receptor activation, making it highly suitable for the assessment of M1, M3 (Gq/11 coupled) and M2, M4 receptors (Gi/o coupled), rather than using different assay formats for different receptor subtypes. CHO cells stably expressing the human muscarinic M1, M2, M3 or M4 receptor were plated (25K/well) onto 96-well tissue culture plates in MEM-alpha+10% dialysed FBS. Once adhered, cells were serum-starved overnight. Agonist stimulation was performed by the addition of 5 μL agonist to the cells for 5 min (37° C.). Media was removed and 50 μL of lysis buffer added. After 15 min, a 4 μL sample was transferred to 384-well plate and 7 μL of detection mixture added. […]
For orientation: In Alpha technology, singlet oxygen from a donor bead excites a nearby acceptor bead.

Test [2] addresses T2, human muscarinic M4 receptor (Homo sapiens, UniProt P08173).
T2 construct: expressed in transfected cells
T2 sequence (P08173 1-479): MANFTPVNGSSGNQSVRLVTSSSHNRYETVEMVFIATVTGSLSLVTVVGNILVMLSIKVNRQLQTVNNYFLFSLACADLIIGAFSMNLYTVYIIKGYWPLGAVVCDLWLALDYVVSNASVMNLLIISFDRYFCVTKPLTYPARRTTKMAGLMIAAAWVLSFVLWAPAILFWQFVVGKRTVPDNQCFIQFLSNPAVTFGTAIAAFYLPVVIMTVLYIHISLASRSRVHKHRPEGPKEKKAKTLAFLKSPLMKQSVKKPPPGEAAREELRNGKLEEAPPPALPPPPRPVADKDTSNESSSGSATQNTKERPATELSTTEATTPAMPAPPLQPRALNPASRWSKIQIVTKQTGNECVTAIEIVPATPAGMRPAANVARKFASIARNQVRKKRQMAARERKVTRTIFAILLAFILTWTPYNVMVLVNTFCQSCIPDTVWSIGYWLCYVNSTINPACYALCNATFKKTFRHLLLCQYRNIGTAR
The test is described as follows: Alphascreen Surefire phospho-ERK1/2 functional assay, M4. The conditions noted are these: for EC50 / pEC50 M4: agonist 5 min, 37° C.; for Emax: CHO, read-out: % Emax cf. ACh (M4), CHO cells stably expressing human M4; for Emax / % Emax cf. ACh (M4): Emax relative to ACh. The protocol: as §1

Test [3] deals with T3, human muscarinic M1 receptor (Homo sapiens, UniProt P11229).
T3 sequence (P11229 1-460): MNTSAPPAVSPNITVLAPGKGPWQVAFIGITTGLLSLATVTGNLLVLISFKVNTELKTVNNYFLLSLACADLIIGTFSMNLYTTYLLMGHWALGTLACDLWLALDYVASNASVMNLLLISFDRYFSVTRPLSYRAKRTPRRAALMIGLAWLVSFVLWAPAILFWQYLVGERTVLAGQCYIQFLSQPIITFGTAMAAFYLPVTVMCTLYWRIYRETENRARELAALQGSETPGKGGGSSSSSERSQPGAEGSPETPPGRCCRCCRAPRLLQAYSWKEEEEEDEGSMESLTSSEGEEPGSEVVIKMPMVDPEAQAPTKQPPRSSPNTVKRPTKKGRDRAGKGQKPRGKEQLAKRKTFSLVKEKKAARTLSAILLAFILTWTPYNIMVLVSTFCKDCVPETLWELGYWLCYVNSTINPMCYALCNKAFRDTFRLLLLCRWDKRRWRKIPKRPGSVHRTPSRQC
In words: Alphascreen Surefire phospho-ERK1/2 functional assay, M1. The conditions noted are these: for EC50 / pEC50 M1: agonist 5 min, 37° C.; for Emax: CHO. The protocol: as §1

Test [4] deals with T4, human muscarinic M2 receptor (Homo sapiens, UniProt P08172).
T4 sequence (P08172 1-466): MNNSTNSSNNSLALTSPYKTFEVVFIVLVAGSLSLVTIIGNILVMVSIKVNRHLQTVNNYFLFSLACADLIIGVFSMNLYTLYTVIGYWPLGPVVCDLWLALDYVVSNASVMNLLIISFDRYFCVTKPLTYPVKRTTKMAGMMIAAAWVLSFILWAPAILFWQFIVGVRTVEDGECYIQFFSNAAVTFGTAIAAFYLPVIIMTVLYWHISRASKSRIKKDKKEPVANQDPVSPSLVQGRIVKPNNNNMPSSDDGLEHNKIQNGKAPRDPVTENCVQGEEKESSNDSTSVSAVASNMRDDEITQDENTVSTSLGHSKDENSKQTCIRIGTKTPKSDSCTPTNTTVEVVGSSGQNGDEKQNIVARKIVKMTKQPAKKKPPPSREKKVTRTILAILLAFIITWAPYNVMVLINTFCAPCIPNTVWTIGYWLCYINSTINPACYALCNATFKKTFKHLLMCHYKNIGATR
In words: Alphascreen Surefire phospho-ERK1/2 functional assay, M2. The conditions noted are these: for Emax: CHO. The protocol:
as §1

[5] abbreviates: CHO cells stably expressing human M3, agonist 5 min, 37° C., read-out: pEC50 M3 (converted).
The mark [6] stands for this setting: CHO cells stably expressing human M4, read-out: pEC50 M4 (converted).
Where [7] appears, read: CHO cells stably expressing human M1, read-out: pEC50 M1 (converted).
Where [8] appears, read: read-out: % Emax cf. ACh (M1), CHO cells stably expressing human M1, Emax relative to ACh.
The mark [9] stands for this setting: CHO cells stably expressing human M2, agonist 5 min, 37° C., read-out: pEC50 M2 (converted).
[10] abbreviates: pEC50 M1, CHO cells stably expressing human M1.
Setting [11] is: CHO cells stably expressing human M4.
[12] abbreviates: CHO cells stably expressing human M1, Emax relative to ACh.
Where [13] appears, read: CHO cells stably expressing human M1.

Like-named read-outs stand apart in the source and are kept apart here.

T1 sequence (P20309 whole entry): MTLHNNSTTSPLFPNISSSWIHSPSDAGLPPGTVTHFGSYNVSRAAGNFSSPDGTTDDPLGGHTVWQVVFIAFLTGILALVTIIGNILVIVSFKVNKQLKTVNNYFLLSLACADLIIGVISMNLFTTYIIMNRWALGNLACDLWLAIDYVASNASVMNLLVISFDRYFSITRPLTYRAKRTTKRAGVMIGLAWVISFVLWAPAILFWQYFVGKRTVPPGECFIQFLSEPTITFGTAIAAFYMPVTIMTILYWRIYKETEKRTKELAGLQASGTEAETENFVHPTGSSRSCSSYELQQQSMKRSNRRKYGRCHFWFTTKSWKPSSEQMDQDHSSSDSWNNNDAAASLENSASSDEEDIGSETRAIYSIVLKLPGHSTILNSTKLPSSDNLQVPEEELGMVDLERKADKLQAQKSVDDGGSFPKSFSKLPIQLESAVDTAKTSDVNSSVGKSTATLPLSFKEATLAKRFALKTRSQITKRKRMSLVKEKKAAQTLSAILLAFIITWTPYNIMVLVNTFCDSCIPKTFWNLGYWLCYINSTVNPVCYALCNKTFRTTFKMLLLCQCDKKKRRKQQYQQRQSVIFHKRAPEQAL

On to `Cc1noc(N2CCC3(CC(N4CCC(n5cccn5)CC4)C3)C2)n1` (single isomer, unassigned) [2-1 Isomer 2], for which the EC50 in test [1] (setting [5]) was above 20000 nM; in test [2] (setting [6]) it was 302 nM; in test [3] (setting [7]), above 20000 nM; in test [4] (setting [9]), above 20000 nM. In addition, the maximum response (Emax) in test [1] (read-out: % Emax cf. ACh (M3), CHO cells stably expressing human M3, Emax relative to ACh) was 3%; in test [2], 41%; in test [3] (setting [8]), 56%; in test [4] (read-out: % Emax cf. ACh (M2), CHO cells stably expressing human M2, Emax relative to ACh) it was 2%.
Take `Cc1noc(N2CCC3(CC(N4CCC(C#N)(c5ccccc5)CC4)C3)C2)n1` (single isomer, unassigned) [2-2 Isomer 2]: the EC50 is above 20000 nM in test [1]; 117 nM in test [2] (pEC50 M4, CHO cells stably expressing human M4); 741 nM in test [3] (setting [10]); above 20000 nM in test [4]. Also, the Emax worked out at 3% in test [1] (read-out: % Emax cf. ACh (M3)), 51% in test [2], 40% in test [3] (read-out: % Emax cf. ACh (M1)) and 2% in test [4] (read-out: % Emax cf. ACh (M2)).
As for `Cc1noc(N2C3CCC2CC(N2CCC(n4cccn4)CC2)C3)n1` (single isomer, unassigned) [6-1 Isomer 1], the EC50 in test [1] (setting [5]) is above 20000 nM; in test [2] (setting [6]), 295 nM; in test [3] (setting [7]) it was above 20000 nM; in test [4] (setting [9]), above 20000 nM. The maximal effect (Emax) amounted to 2% in test [1] (read-out: % Emax cf. ACh (M3)), 51% in test [2], 23% in test [3] (setting [8]) and 2% in test [4] (read-out: % Emax cf. ACh (M2)).
`CCc1noc(N2C3CCC2CC(N2CCC4(CC2)CNC(=O)C4)C3)n1` (single isomer, unassigned) [6-3 Isomer 2]: the EC50 in test [1] was above 20000 nM; in test [2] (setting [6]), above 20000 nM; in test [3] (setting [10]), 32.4 nM; in test [4] it was above 20000 nM. Moreover, the maximum response (Emax) amounted to 1% in test [1] (read-out: % Emax cf. ACh (M3)), 7% in test [2], 33% in test [3] (setting [8]) and 3% in test [4] (read-out: % Emax cf. ACh (M2)).
With `Cc1noc(N2C3CCC2CC(N2CCC4(CC2)CNC(=O)O4)C3)n1` (single isomer, unassigned) [6-4 Isomer 2], the EC50 in test [1] (setting [5]) is above 20000 nM; in test [2] (setting [6]), 525 nM; in test [3] (setting [7]), 257 nM; in test [4] (setting [9]) it was above 20000 nM. Moreover, the maximal response (Emax) in test [1] (read-out: % Emax cf. ACh (M3)) came out at 32%; in test [4] (read-out: % Emax cf. ACh (M2)), 5%. Besides, the “% Emax cf. ACh (M4)” value in test [2] (setting [11]) is given as “(39) %”. For the same compound, in test [3] (setting [12]), the “% Emax cf. ACh (M1)” value is reported as “(87) %”.
With `CNC(=O)N1CCC[C@H]1C1CCN(C2CCCN(c3nc(C)no3)CC2)CC1` (single isomer, unassigned) [10-12 Isomer 1], the EC50 in test [2] (setting [6]) is 309 nM; in test [3] (setting [7]), above 20000 nM. In addition, the Emax was 100% in test [2] and 22% in test [3] (setting [8]).
`CNC(=O)N1CCC[C@H]1C1CCN(C2CCCN(c3nc(C)no3)CC2)CC1` (single isomer, unassigned) [10-12 Isomer 2]: the “% Emax cf. ACh (M4)” value in test [2] (setting [11]) is “(119) %”. The EC50 in test [2] (setting [6]) was 55 nM. For the same compound, the “% Emax cf. ACh (M1)” value in test [3] (setting [12]) is on record as “(24) %”. The “pEC50 M1” value in test [3] (setting [13]) was below 4.70.
On to `Cc1noc(N2CC3CC(N4CCC(n5cccn5)CC4)CC2C3)n1` (single isomer, unassigned) [11-1 Isomer 2], for which the EC50 was 1050 nM in test [2] (setting [6]) and 3160 nM in test [3] (setting [7]). Besides, the figures for the Emax in test [2] and in test [3] (setting [8]) were 69% and 48%, respectively.
In the case of `Cc1noc(N2CC3CCC2CC3N2CCC3(CC2)CNC(=O)C3)n1` (single isomer, unassigned) [12-1 Isomer 1], the “% Emax cf. ACh (M4)” value in test [2] (setting [11]) is given as “(5) %”. Besides, the values for the EC50 in test [2] (setting [6]) and in test [3] (setting [7]) were above 20000 nM and 603 nM, respectively. Further, in test [3] (setting [12]), the “% Emax cf. ACh (M1)” value is reported as “(58) %”.
Regarding `Cc1noc(N2C3CCC2CC(N2CCC(C(=O)NC4(C(F)(F)F)CCC4)CC2)C3)n1` (single isomer, unassigned) [12-7 Isomer 2], the EC50 is 2000 nM in test [2] (setting [6]) and 537 nM in test [3] (setting [7]). Moreover, the maximal response (Emax) in test [2] and in test [3] (setting [8]) was 109% throughout.
As for `Cc1noc(N2C3CCC2CC(N2CCC(C(=O)NC4(C)CCCC4)CC2)C3)n1` (single isomer, unassigned) [12-11 Isomer 2], the EC50 in test [2] (setting [6]) is 2690 nM; in test [3] (setting [7]), 661 nM. The maximal effect (Emax) turned out to be 83% in test [2] and 103% in test [3] (setting [8]).
For `Cc1noc(N2C3CCC2CC(N2CCC(C(=O)NCC4(C)CCC4)CC2)C3)n1` (single isomer, unassigned) [12-12 Isomer 2], the EC50 is 209 nM in test [2] (setting [6]) and 3.72 nM in test [3] (setting [10]). Besides, the maximum response (Emax) in test [2] was 107%; in test [3] (setting [8]), 80%.
Take `CC1(NC(=O)C2CCN(C3CC4CCC(C3)N4c3nc(C(F)(F)F)no3)CC2)CCC1` (single isomer, unassigned) [12-14 Isomer 1]: in test [2] (setting [11]), the “% Emax cf. ACh (M4)” value is recorded as “(6) %”. Further, the EC50 is above 20000 nM in test [2] (setting [6]) and 912 nM in test [3] (setting [10]). Also, in test [3] (setting [12]), the “% Emax cf. ACh (M1)” value is recorded as “(47) %”.
Consider `CCN(C)C(=O)[C@H]1[C@@H]2CN(C3CC4CCC(C3)N4c3nc(C)no3)C[C@@H]21` (single isomer, unassigned; isomer 1) [12-24 Isomer 1], for which, in test [2] (setting [11]), the “% Emax cf. ACh (M4)” value was “(16) %” and the “pEC50 M4” value is recorded as below 4.70. The “% Emax cf. ACh (M1)” value in test [3] (setting [12]) is “(74) %”. Also, the “pEC50 M1” value in test [3] (setting [13]) was found to be 6.08.
For `Cc1noc(N2C3CCC2CC(N2C[C@@H]4[C@H](C2)[C@H]4C(=O)NC2(C)CCC2)C3)n1` (single isomer, unassigned; isomer 2) [12-13 Isomer 2] the same measures were “(69) %”, 6.09, “(102) %” and 6.48.
As for `Cc1noc(N2CC3(CC(N4CCC(n5cccn5)CC4)C3)C2)n1` [Example 1-1, 2-(3-Methyl-1,2,4-oxadiazol-5-yl)-6-[4-(1H-pyrazol-1-yl)piperidin-1-yl]-2-azaspiro[3.3]heptane], the EC50 is 513 nM in test [2] (setting [6]) and 10200 nM in test [3] (setting [7]). Further, the Emax in test [2] is 77%; in test [3] (setting [8]), 48%.
Taken in the same sequence, the figures for `Cc1noc(N2CCC(N3CCC(n4cccn4)CC3)CC2)n1` [Example 4-1, 1′-(3-Methyl-1,2,4-oxadiazol-5-yl)-4-(1H-pyrazol-1-yl)-1,4′-bipiperidine] were 1000 nM, at least 20000 nM, 85% and 50%.

What is called Emax is the maximal effect, on the per cent scale that the assay sets.
